Entries after “also recorded” stand apart in the source; their conditions may differ. Read-outs that look alike come from different tables or passages of the source.
Tests used:
bacteria [1] = conditions: gram negative and gram positive; Ordonez et al. 2017; cited from earlier work
J774 macrophages [2] = conditions: Ordonez et al. 2017; cited from earlier work
P. aeruginosa = conditions: Ordonez et al. 2017; cited from earlier work
A. fumigatus = test: In vitro uptake of radiolabeled sugar in fungal cultures (retained radioactivity after incubation and washing); format: cell-based, Aspergillus fumigatus
Method: (§1) The inventors identified sugars and other molecules involved in the metabolic pathways of clinically-relevant fungal infections, and generated radiolabeled versions (3H or 14C) that were tested for in vitro uptake in bacteria (gram-negative, gram-positive, Pseudomonas aeruginosa), macrophages (J774 cell line) and m clinically-relevant fungal strains including Aspergillus, Rhizomucor, Cryptococcus and Candida albicans. Organisms and cells were exposed to the radiolabeled compounds and the in vitro uptake was measured (retained radioactivity after incubation and washing of the cultures measured using a beta counter). […] For the biodistribution and autoradiography studies showing specific uptake of the radioactive molecules by fungal-infected animals (i.e., retained radioactivity in the lungs in the infected animals but not in the control animals), the ligand(s) specific for each type of fungi was radiolabeled with 18F or other PET isotopes. Using the radiolabeled ligand(s), live PET imaging is performed on infected mice using a microPET/CT scanner. […] The images are reconstructed and analyzed using special software. […]
(§2) In vitro studies using ^3H-cellobiose were performed with measurement of retained radioactivity after incubation and washing of the cultures using a beta counter.

bacteria [3] = test: In vitro uptake of radiolabeled sugar in bacterial cultures; format: cell-based, E. coli, S. aureus; conditions: FIGS. 1B-1C
Method: The inventors identified sugars and other molecules involved in the metabolic pathways of clinically-relevant fungal infections, and generated radiolabeled versions (3H or 14C) that were tested for in vitro uptake in bacteria (gram-negative, gram-positive, Pseudomonas aeruginosa), macrophages (J774 cell line) and m clinically-relevant fungal strains including Aspergillus, Rhizomucor, Cryptococcus and Candida albicans. Organisms and cells were exposed to the radiolabeled compounds and the in vitro uptake was measured (retained radioactivity after incubation and washing of the cultures measured using a beta counter). […] For the biodistribution and autoradiography studies showing specific uptake of the radioactive molecules by fungal-infected animals (i.e., retained radioactivity in the lungs in the infected animals but not in the control animals), the ligand(s) specific for each type of fungi was radiolabeled with 18F or other PET isotopes. Using the radiolabeled ligand(s), live PET imaging is performed on infected mice using a microPET/CT scanner. This is done by injecting the radioactive ligand intravenously through the tail vein and then positioning the animals inside the microPET/CT gantry and obtaining CT scan images as well as PET emission data. The images are reconstructed and analyzed using special software. […]

J774 macrophages [4] = test: In vitro uptake of radiolabeled sugar in macrophages / mammalian cells; format: cell-based; conditions: J774 cell line; FIG. 1D, FIG. 4B
Method: as §1, §2

[5] = system: A. fumigatus-infected lungs (nasopharyngeal model); test: Organ biodistribution after injection of radiolabeled sugar in Aspergillus-infected mice; format: in vivo, mouse; conditions: infected vs uninfected controls / sterile lung inflammation, FIG. 2, FIG. 4C
Method: as §1, with “isotopes.” for “isotopes. Using the radiolabeled ligand(s), live PET imaging is performed on infected mice using a microPET/CT scanner.”
(§3) ex vivo experiments were performed, including biodistribution (injecting the animals with radiolabeled molecules followed by euthanasia, collection of organs and measurement of radioactivity) and autoradiography (sectioning of lung tissues from injected animals to measure residual radioactivity).

[6] = system: A. fumigatus infected mice; test: Autoradiography of tissue sections from injected infected mice; format: in vivo, mouse; conditions: lung sections; nasopharyngeal inoculation model; FIG. 1F, FIG. 5A
Method: as §1, with “isotopes.” for “isotopes. Using the radiolabeled ligand(s), live PET imaging is performed on infected mice using a microPET/CT scanner.”
as §3, with “radioactivity). […]” for “radioactivity).”

[7] = system: pulmonary aspergillosis (Aspergillus lung infection); format: in vivo, mouse; conditions: for PET/CT uptake (SUV) in lungs of infected mice: 60-minute dynamic PET/CT, pulmonary aspergillosis model vs controls and poly (I:C) treated mice
Method: The inventors identified sugars and other molecules involved in the metabolic pathways of clinically-relevant fungal infections, and generated radiolabeled versions (3H or 14C) that were tested for in vitro uptake in bacteria (gram-negative, gram-positive, Pseudomonas aeruginosa), macrophages (J774 cell line) and m clinically-relevant fungal strains including Aspergillus, Rhizomucor, Cryptococcus and Candida albicans. Organisms and cells were exposed to the radiolabeled compounds and the in vitro uptake was measured (retained radioactivity after incubation and washing of the cultures measured using a beta counter). […] For the biodistribution and autoradiography studies showing specific uptake of the radioactive molecules by fungal-infected animals (i.e., retained radioactivity in the lungs in the infected animals but not in the control animals), the ligand(s) specific for each type of fungi was radiolabeled with 18F or other PET isotopes. Using the radiolabeled ligand(s), live PET imaging is performed on infected mice using a microPET/CT scanner. This is done by injecting the radioactive ligand intravenously through the tail vein and then positioning the animals inside the microPET/CT gantry and obtaining CT scan images as well as PET emission data. The images are reconstructed and analyzed using special software. To confirm specificity for fungal infection, in vivo uptake of the ligand(s) in animal models of sterile inflammation, as well as models of bacterial infection (gram positive and gram negative bacteria) are performed.
Three main mouse models were developed: (1) Aspergillus lung infection (nasopharyngeal administration of 30 μl suspension of Aspergillus conidia), (2) Aspergillus hematogenous spread (intravenous administration of 100 μl of fungal suspension via the tail vein) and (3) sterile lung inflammation model (induced by nasopharyngeal administration of 50-100 μg of poly (I:C) suspension in 30 μl of sterile PBS; poly(I:C) is a synthetic double stranded RNA which activates Toll-like receptors-3 (TLR3), thereby inducing signaling via multiple inflammatory pathways).
Standardized uptake values (SUVs) of ^18F-L-rhamnose in infected mice were then measured, and compared to animals with sterile lung inflammation (24 hours following post-pharyngeal poly (I:C) administration) and healthy controls.

Q: What does the source list for C[C@H](O)[C@H](O)[C@@H](O)[C@@H](O)C=O [L-Rhamnose]?
A: L-Rhamnose uptake in bacteria (bacteria [1]): low; L-Rhamnose uptake in macrophages (J774 macrophages [2]): very low; L-Rhamnose uptake in P. aeruginosa (P. aeruginosa): very low

Q: Which results are given for C[C@H](O)[C@H](O)[C@@H](O)[C@@H](O)C=O [^3H-L-Rhamnose]?
A: in vitro retention/uptake of 3H-labeled sugar by A. fumigatus (A. fumigatus; retained radioactivity after incubation and washing, beta counter, FIG. 1A, FIG. 4A): significant retention; in vitro retention of 3H-L-Rhamnose by bacteria (bacteria [3]): minimal retention; in vitro retention/uptake of 3H-labeled sugar by macrophages (mammalian cells) (J774 macrophages [4]): minimal retention; biodistribution: uptake in lungs of infected versus control mice [5]: uptake of ^3H-L-Rhamnose in the lungs of infected animals but not in uninfected controls; also recorded: increased uptake in the lungs of infected compared to control mice and mice with sterile lung inflammation; autoradiography: uptake in lungs of infected mice [6]: accumulation of ^3H-L-Rhamnose in the lungs of infected but not uninfected animals

Q: For C[C@H](O)[C@H](O)[C@@H](O)[C@@H]([18F])C=O [^18F-L-rhamnose, 2-deoxy-2-[^18F]fluororhamnose], which “in vitro uptake of ^18F-L-rhamnose by A. fumigatus” value (A. fumigatus; live versus heat-killed cultures, FIG. 1E) is on record?
A: specifically internalized by live A. fumigatus cultures when compared to heat-killed cultures

Q: And the “PET/CT uptake (SUV) in lungs of infected mice” value ([7]; FIG. 3A)?
A: slight higher uptake in lung lesions compared to controls and poly (I:C) treated mice

Q: What about the “PET/CT uptake (SUV) in lungs of infected mice” value ([7]; FIG. 3A, listed as [^18F]-rhamnose) of the same compound?
A: Increased uptake is seen in the lungs of nasopharyngeally-infected pulmonary IA (AF NP) mice

Q: And the “PET uptake in lungs of control or sterile lung inflammation mice” value ([7]; control and poly (I:C) mice, averaged 520-3520 seconds post injection, FIG. 3A)?
A: no appreciable uptake is seen in the lungs of control or sterile lung (poly (I:C)inflammation mice

Q: What about the “washout of the ligand (time activity curve)” value ([7]; mouse, in vivo) of the same compound?
A: relatively fast washout
